{
  "source": "patent US11459547B2",
  "about": "“Method for producing osteoblast cluster using human iPS cells” (priority 2017, dated 2022)",
  "format_in_all_cases": "cell-based",
  "key": {"[1]": {"system": "human iPS cell embryoid bodies (409B2)", "assay": "Mesoderm induction ratio by immunofluorescent staining of Brachyury", "conditions": "embryoid body formation 1 day; mesoderm differentiation induction medium with or free of CHIR99021 or cyclopamine; the label names the compound(s) present; 17% in the absence of both", "description": "The immunostaining was pertained using: anti-Brachyury polyclonal antibody (AF2085, R&D SYSTEMS) as a primary antibody; Alexa Fluor594-labeled anti-goat IgG antibody (Thermo Fisher Scientific) as a secondary antibody; and Hoechst 33258 (Thermo Fisher Scientific) for nuclear staining.\nThe mesoderm induction ratio was determined from the ratio of Brachyury-positive embryoid bodies in all embryoid bodies present in an immunostaining photographic image."}, "[2]": {"system": "human iPS cell embryoid bodies (409B2)", "assay": "Mesoderm differentiation induction of iPS cell embryoid bodies, immunofluorescent staining of mesodermal marker Brachyury", "conditions": "embryoid body formation 1 day, then static culture 5 days in mesoderm differentiation induction medium with 30 CHIR99021 and/or 5 cyclopamine; the label names the compound(s) present", "description": "The iPS cells were washed with phosphate buffered saline (PBS), and treated with 1 ml of a CTK solution (0.25% trypsin, 0.1 mg/ml collagenase IV, 10 mM CaCl2), 20% KSR) at 37° C. for 1 minute. After that, the CTK solution was removed by aspiration, and 1 ml of PBS was added. PBS was removed, and only the feeder cells exfoliated from the culture plate were removed by aspiration as much as possible. After that, adherent iPS cells remaining in the culture plate were collected using 5 ml of ES medium (RCHEMD001) supplemented with 4 ng/ml FGF. The resultant cell suspension was transferred to a low-attachment culture dish (Thermo Fisher Scientific, Cat. #150239), and subjected to static culture for 1 day to induce the formation of embryoid bodies. As a control, the formation of embryoid bodies was performed for 0 days or 4 days.\nAfter static culture had been performed for 1 day, iPS cell embryoid bodies were collected. […] As a control, osteoblastic differentiation induction described in (1-4) was performed after the embryoid body formation described in (1-2) without mesoderm differentiation induction. For the evaluation of mesoderm differentiation induction, immunofluorescent staining using a mesodermal marker Brachyury was performed."}, "[3]": {"system": "human iPS cell-derived mesoderm cell constructs", "assay": "Osteoblastic differentiation induction with small-molecule compound, histochemical observation of mineralization (von Kossa)", "description": "As a control, non-adherent culture was performed without shaking. The medium was changed every 7 days. The resultant sample was subjected to immunofluorescent staining, specifically hematoxylin and eosin (H&E) staining, von Kossa staining, or Osteocalcin, and subjected to histochemical observation."}, "[4]": {"system": "human iPS cell embryoid bodies", "assay": "Comparative Example: retinoic acid culture instead of mesoderm induction, then osteoblastic differentiation induction; shape of cell construct", "conditions": "ES medium 2 days, then 2 days with 1 µM retinoic acid, then osteoblastic differentiation induction without mesoderm induction step", "description": "iPS cells were obtained in accordance with the method described in (1-1) above, and subjected to culture in an ES medium corresponding to (1-2) above for 2 days. The resultant embryoid bodies of the iPS cells were collected, and further cultured for 2 days using the above-mentioned ES medium having blended therein 1 µM retinoic acid (all-trans retinoic acid: Sigma). After that, the step of inducing differentiation into osteoblasts described in (1-4) above was performed without the step of inducing differentiation into mesoderm cells described in (1-3) above."}},
  "note": "Entries after “also recorded” stand apart in the source; their conditions may differ.",
  "data": [
    {"smiles": "Cc1c[nH]c(-c2cnc(NCCNc3ccc(C#N)cn3)nc2-c2ccc(Cl)cc2Cl)n1", "note": "[CHIR99021]", "values": [
      {"measurement": "mesoderm induction ratio (ratio of Brachyury-positive embryoid bodies in all embryoid bodies)", "setting": "[1]", "value": 57, "unit": "%"},
      {"measurement": "expression of the mesodermal marker (Brachyury), immunofluorescent staining", "setting": "[2]", "value": "marked expression of Brachyury was similarly found"}
    ]},
    {"smiles": "CC1=C2C[C@H]3[C@@H](CC=C4C[C@@H](O)CC[C@@]43C)[C@@H]2CC[C@]12O[C@@H]1C[C@H](C)CN[C@H]1[C@H]2C", "note": "[cyclopamine]", "values": [
      {"measurement": "expression of the mesodermal marker (Brachyury), immunofluorescent staining", "setting": "[2]", "value": "the expression of Brachyury was found, though not as marked as in the presence of CHIR99021"}
    ]},
    {"smiles": "CC(=O)N(O)CCCCCNC(=O)CCC(=O)N(O)CCCCCNC(=O)CCC(=O)N(O)CCCCCN", "note": "[desferrioxamine]", "values": [
      {"measurement": "mineralization of cell construct on day 30", "setting": "[3]; day 30 of the osteoblastic differentiation induction, 10 μM desferrioxamine", "value": "markedly mineralized cell construct"},
      {"measurement": "mineralization of osteoblast construct", "setting": "[3]; osteoblastic differentiation induction medium supplemented with 10 μM desferrioxamine or 1 μM simvastatin, non-adherent shaking culture", "value": "markedly mineralized osteoblast construct"}
    ]},
    {"smiles": "CC1=C(/C=C/C(C)=C/C=C/C(C)=C/C(=O)O)C(C)(C)CCC1", "note": "[retinoic acid, all-trans retinoic acid]", "values": [
      {"measurement": "shape of resultant osteoblast-like cell construct", "setting": "[4]", "value": "not solid cell constructs, but were bag-like; also recorded: hollow bag-like (sac-like) shape"}
    ]}
  ]
}
